Our source for the Activity values is ChEMBL document CHEMBL1781959, “Synthesis and in vitro antitumor activity of substituted quinazoline and quinoxaline derivatives: search for anticancer agent” (Eur J Med Chem, 2011).

Type in all cases: functional
The subject of experiment [1] is SF-268. The experiment can be described thus: Anticancer activity against human SF268 cells assessed as cell growth promotion at 10^-5 M after 48 hrs by SRB assay relative to control. On the technique in general: Sulforhodamine B stains cellular protein and so reports cell mass.
The subject of experiment [2] is SF-295. As to the kind of experiment: Anticancer activity against human SF295 cells assessed as cell growth promotion at 10^-5 M after 48 hrs by SRB assay relative to control.
Experiment [3] concerns SNB-75. The experiment can be described thus: Anticancer activity against human SNB75 cells assessed as cell growth promotion at 10^-5 M after 48 hrs by SRB assay relative to control.
The test system of experiment [4] is U-251. The experiment can be described thus: Anticancer activity against human U251 cells assessed as cell growth promotion at 10^-5 M after 48 hrs by SRB assay relative to control.
Experiment [5] deals with Malme-3M. As to the kind of experiment: Anticancer activity against human MALME-3M cells assessed as cell growth promotion at 10^-5 M after 48 hrs by SRB assay relative to control.
Experiment [6] deals with SK-MEL-2. The experiment can be described thus: Anticancer activity against human SK-MEL-2 cells assessed as cell growth promotion at 10^-5 M after 48 hrs by SRB assay relative to control.
Experiment [7] concerns IGROV-1. The experiment can be described thus: Anticancer activity against human IGROV1 cells assessed as cell growth promotion at 10^-5 M after 48 hrs by SRB assay relative to control.
The test system of experiment [8] is OVCAR-4. As to the kind of experiment: Anticancer activity against human OVCAR4 cells assessed as cell growth promotion at 10^-5 M after 48 hrs by SRB assay relative to control.
Experiment [9] deals with 786-0. The experiment can be described thus: Anticancer activity against human 786-0 cells assessed as cell growth promotion at 10^-5 M after 48 hrs by SRB assay relative to control.
In experiment [10] the test system is CAKI-1. The experiment can be described thus: Anticancer activity against human Caki1 cells assessed as cell growth promotion at 10^-5 M after 48 hrs by SRB assay relative to control.
Experiment [11] deals with RXF 393. As to the kind of experiment: Anticancer activity against human RXF393 cells assessed as cell growth promotion at 10^-5 M after 48 hrs by SRB assay relative to control.
Experiment [12] has as its system SN12C. As to the kind of experiment: Anticancer activity against human SN12C cells assessed as cell growth promotion at 10^-5 M after 48 hrs by SRB assay relative to control.
Experiment [13] deals with DU-145. As to the kind of experiment: Anticancer activity against human DU145 cells assessed as cell growth promotion at 10^-5 M after 48 hrs by SRB assay relative to control.
Experiment [14] concerns MDA-MB-231. As to the kind of experiment: Anticancer activity against human MDA-MB-231 cells assessed as cell growth promotion at 10^-5 M after 48 hrs by SRB assay relative to control.
Experiment [15] relates to BT-549. As to the kind of experiment: Anticancer activity against human BT549 cells assessed as cell growth promotion at 10^-5 M after 48 hrs by SRB assay relative to control.
Experiment [16] deals with SR. As to the kind of experiment: Anticancer activity against human SR cells assessed as cell growth promotion at 10^-5 M after 48 hrs by SRB assay relative to control.
Experiment [17] has as its system EKVX. The experiment can be described thus: Anticancer activity against human EKVX cells assessed as cell growth promotion at 10^-5 M after 48 hrs by SRB assay relative to control.
Experiment [18] deals with HCC 2998. The experiment can be described thus: Anticancer activity against human HCC2998 cells assessed as cell growth promotion at 10^-5 M after 48 hrs by SRB assay relative to control.
Experiment [19] deals with SW-620. The experiment can be described thus: Anticancer activity against human SW620 cells assessed as cell growth promotion at 10^-5 M after 48 hrs by SRB assay relative to control.
Experiment [20] is described as follows: Anticancer activity against human […] cells assessed as cell growth promotion at 10^-5 M after 48 hrs by SRB assay relative to control.
Experiment [21] has as its system NCI-H522. The experiment can be described thus: Anticancer activity against human NCI-H522 cells assessed as cell growth promotion at 10^-5 M after 48 hrs by SRB assay relative to control.

`O=c1c2ccccc2nc(-c2ccco2)n1O`: the Activity came to 106.3% in [1]; 117.66% in experiment [2]; 86.97% in [3]; 110.85% in [4]; 122.97% in experiment [5]; 103.59% in experiment [6]. The Activity in [7] is reported as 103.91%; in experiment [8], 114.55%; in experiment [9], 104.23%; in experiment [10], 102.81%; in [11], 117.15%; in [12] it was 98.6%. Also, the Activity in [13] amounted to 122.21%; in [14], 93.48%; in experiment [15] it was 103.7%; in experiment [16] it was 94.7%; in [17], 109.13%; in experiment [18] it was 119.5%. Also, the Activity in [19] was found to be 107.69%.
As to `COc1cc(/C=C/c2ccc(NC(=O)c3ccccc3NC(=O)c3ccccc3)cc2)ccc1O`, the Activity in experiment [1] is given as 108%; in experiment [2], 162%; in [3], 85.88%; in [4], 103%; in experiment [5], 101%; in experiment [6] it was 104%. The Activity worked out at 96.3% in [7]; 95.86% in [9]; 95.9% in experiment [10]; 95.14% in experiment [11]; 96.62% in experiment [12]; 108% in [13]. Also, the Activity amounted to 96.74% in experiment [14]; 95.53% in experiment [15]; 79.36% in experiment [20]; 106.41% in experiment [16]; 100% in experiment [17]; 99.45% in experiment [21]. Moreover, the values for the Activity in experiment [18] and in [19] were 99.7% and 109%, respectively.
As to `O=C(Nc1ccccc1C(=O)Nc1ccc(/C=C/C=C/c2ccccc2)cc1)c1ccccc1`, the Activity is listed as 98.17% in experiment [1]; 58.93% in experiment [2]; 82.74% in [3]; 95.87% in experiment [4]; 78.99% in experiment [5]; 96.46% in experiment [6]. Besides, the Activity in experiment [7] amounted to 78.34%; in experiment [9], 84.31%; in experiment [10] it was 83.56%; in experiment [11], 98.83%; in experiment [12] it was 87.79%; in experiment [13], 111%. Also, the Activity amounted to 87.48% in [14]; 86.19% in experiment [15]; 63.43% in [20]; 70.89% in experiment [16]; 87.7% in [17]; 70.1% in [21]. Also, the Activity in experiment [18] amounted to 93.69%; in experiment [19] it was 107%.
For `N#Cc1ccc(/C=C/c2nc3ccccc3nc2SCc2nc3ccccc3[nH]2)cc1`, the Activity in experiment [1] was 109%; in experiment [2] it was 127%; in experiment [4] it was 107%; in experiment [5] it was 90.35%; in [7] it was 103%; in experiment [9], 90.69%. Moreover, the Activity in [10] is 111%; in [11], 107%; in experiment [12], 94.09%; in experiment [13], 103%; in [14], 97.02%; in experiment [20] it was 102%. For the same compound, the Activity in experiment [16] is reported as 97.73%; in experiment [17], 99.04%; in experiment [19] it was 98.13%.
In the case of `Oc1ccc(/C=C/c2nc3ccccc3nc2SCc2nc3ccccc3[nH]2)cc1`, the Activity in experiment [1] came out at 91.53%; in experiment [2] it was 82.46%; in [3] it was 93.68%; in experiment [4], 95.56%; in experiment [5] it was 86.88%; in [7], 71.03%. Moreover, the Activity is 107% in [8]; 94.31% in experiment [9]; 76.71% in experiment [10]; 106% in experiment [11]; 94.78% in experiment [12]; 97.51% in [13]. Moreover, the Activity in [14] is on record as 95.18%; in [20] it was 85.51%; in [16], 99.18%; in experiment [17], 92.68%; in [18], 123%; in experiment [19], 95.64%.
On to `CN(C)c1ccc(/C=C/c2nc3ccccc3nc2SCc2nc3ccccc3[nH]2)cc1`, for which the Activity in experiment [1] was determined as 107%; in [2] it was 104%; in experiment [4], 102%; in experiment [5], 102%; in experiment [7], 116%; in experiment [9] it was 90.32%. Besides, the Activity in experiment [10] is listed as 107%; in [11], 99.96%; in experiment [12] it was 100%; in experiment [13] it was 95.35%; in experiment [14], 89.23%; in experiment [20], 100%. For the same compound, the Activity in [16] is listed as 79.22%; in [17] it was 92.96%; in experiment [18] it was 90.32%; in experiment [19], 102%.
As for `C(=C\c1nc2ccccc2nc1SCc1nc2ccccc2[nH]1)/c1ccccc1`, the Activity in experiment [1] came to 88.12%; in experiment [2], 58.32%; in experiment [4] it was 79.81%; in experiment [5] it was 63.63%; in experiment [7] it was 87.44%; in experiment [8], 2.71%. Also, the Activity in experiment [9] worked out at 76.68%; in [10], 77.88%; in [11], 97.82%; in [12], 74.42%; in experiment [13], 74.33%; in [14] it was 77.23%. In addition, the Activity is reported as 47.73% in experiment [20]; 83.8% in experiment [16]; 22.23% in [17]; 86.35% in experiment [18]; 83.03% in experiment [19].
As to `COc1ccc(OC)c(/C=C/c2nc3ccccc3nc2SCc2nc3ccccc3[nH]2)c1`, the Activity in experiment [1] was 99.47%; in [2], 110%; in [4], 104%; in [5], 108%; in experiment [7] it was 79.39%; in experiment [9], 90.52%. Moreover, the Activity in experiment [10] is given as 83.86%; in experiment [11], 87%; in experiment [12] it was 88.34%; in experiment [13], 98.54%; in experiment [14], 96.56%; in experiment [20] it was 77.53%. Also, the Activity in [16] is 81.4%; in [17], 81.9%; in experiment [19] it was 96.03%.
For the compound `Oc1ccccc1/C=C/c1nc2ccccc2nc1SCc1nc2ccccc2[nH]1`, the Activity in experiment [1] came to 81.66%; in experiment [2], 93.22%; in [4], 83.34%; in experiment [5], 83.19%; in experiment [7] it was 59.92%; in experiment [8], 25.22%. Further, the Activity stood at 89.92% in experiment [9]; 56.68% in experiment [10]; 87.29% in experiment [11]; 78.21% in [12]; 76.88% in [13]; 53.69% in experiment [14]. Further, the Activity in experiment [20] came out at 63.38%; in [16], 44.46%; in [17], 60.4%; in experiment [18] it was 102%; in [19], 93.22%.
